# Structures can show the parent of a compound that is named as a salt.
# Experiments:
# [1] = system: TNF-α; assay: Induction of TNF-α using fresh human whole blood (WB); format: cell-based; conditions: three donors, overnight incubation, cytokine released as % of 2 μM resiquimod control, read-out: mean pEC50 for TNF-α (converted)
# Description: (§1) Assay for the Induction of Interferon-α and TNF-α using Fresh Human Whole Blood (WB)
# (§2) Compounds were prepared at 100× required concentration in DMSO in flat-bottom microtitre plates at a volume of 1.5 μL. Columns 1-10 contained a 1 in 4 serial dilution of the test compound. Included on each plate was a serial dilution of the TLR7/8 agonist resiquimod as a standard and Column 11 contained 1.5 μl of 200 μM resiquimod (giving a 2 μM final concentration, used to define the approximate maximal response to resiquimod). Each compound was assayed in duplicate for each donor.
# (§3) Incubation and Assays for Interferon-α and TNF-α
# (§4) Blood samples from three human donors were collected into sodium heparin (10 U/ml). 150 μl of whole Blood was dispensed into Col 1 to 11 of assay plates containing 1.5 μl of test compound or standard in DMSO. Plates were placed in an incubator overnight (37° C., 95% air, 5% CO2). Following the overnight incubation, plates were removed from the incubator & mixed on an orbital shaker for approximately 1 minute. 100 μl of 0.9% saline was added to each well and the plates mixed again on an orbital shaker. Plates were then centrifuged (2500 rpm, 10 mins), after which a sample of plasma was removed using a Biomek FX and assayed for both IFN-α and TNF-α using the MSD (Mesoscale Discovery) electrochemiluminescence assay platform. The IFN-α assay was carried out similarly to that described above. The TNF-α assay was carried out as per kit instructions (Cat No K111BHB).
# (§5) Cytokine released was expressed as a percentage of the 2 μM resiquimod control (column 11). This percentage was plotted against compound concentration and the pEC50 for the response determined by non-linear least squares curve fitting. For the IFN-α responses, generally a 4 parameter logistic model was selected. For the TNF responses where a clear maximum response was obtained (i.e. a well defined plateau in the response was observed) then a 4 parameter model was generally used. If the upper asymptote of the curve wasn't well defined then the curve fitting was generally constrained to a maximal response of 100% (i.e. to the response to 2 μM resiquimod) or to the response of the highest concentration tested if this was greater than the resiquimod response. Some curves were bell shaped for one or both cytokines and the cytokine data on the down slope of the bell shaped response (i.e. concentrations above those giving the maximal response) were generally excluded from the fit, usually with the exception of the concentration immediately above the peak response. Curve fitting thus concentrated on the up slope of the dose response curve.
# [2] = system: Interferon-α; assay: Induction of Interferon-α using fresh human whole blood (WB); format: cell-based; conditions: three donors, overnight incubation, cytokine released as % of 2 μM resiquimod control, read-out: mean pEC50 for IFNα (converted)
# Description: as §1, §2, §3, §4, §5
smiles,measurement,setting,value
"CCCCc1nc(N)c2[nH]nc(CCCCCCN3CCCCC3)c2n1 [Example 1, 5-Butyl-3-(6-(piperidin-1-yl)hexyl)-1H-pyrazolo[4,3-d]pyrimidin-7-amine formate]",EC50,[1],≥ 3980 nM
same,EC50,[2],≤ 1260 nM
"COCCc1nc(N)c2[nH]nc(CCCCCCN3CCCCC3)c2n1 [Example 2, 5-(2-Methoxyethyl)-3-(6-(piperidin-1-yl)hexyl)-1H-pyrazolo[4,3-d]pyrimidin-7-amine]",EC50,[1],≥ 3980 nM
same,EC50,[2],≤ 1260 nM
"COCCc1nc(N)c2[nH]nc(CCCCCCN3CCCC3)c2n1 [Example 4, 5-(2-Methoxyethyl)-3-(6-(pyrrolidin-1-yl)hexyl)-1H-pyrazolo[4,3-d]pyrimidin-7-amine]",EC50,[1],≥ 3980 nM
same,EC50,[2],≤ 1260 nM
"CCCCc1nc(N)c2[nH]nc(CCCCCN3CCCCC3)c2n1 [Example 5, 5-Butyl-3-(5-(piperidin-1-yl)pentyl)-1H-pyrazolo[4,3-d]pyrimidin-7-amine]",EC50,[1],≥ 3980 nM
same,EC50,[2],≤ 1260 nM
"CCCCc1nc(N)c2[nH]nc(CCCCCN3CCCC3)c2n1 [Example 6, 5-Butyl-3-(5-(pyrrolidin-1-yl)pentyl)-1H-pyrazolo[4,3-d]pyrimidin-7-amine]",EC50,[1],≥ 3980 nM
same,EC50,[2],≤ 1260 nM
"CCCCc1nc(N)c2[nH]nc(CCCCCCCN3CCCCC3)c2n1 [Example 7, 5-Butyl-3-(7-(piperidin-1-yl)heptyl)-1H-pyrazolo[4,3-d]pyrimidin-7-amine]",EC50,[1],≥ 3980 nM
same,EC50,[2],≤ 1260 nM
"CCCCc1nc(N)c2[nH]nc(CCCCCCCN3CCCC3)c2n1 [Example 8, 5-Butyl-3-(7-(pyrrolidin-1-yl)heptyl)-1H-pyrazolo[4,3-d]pyrimidin-7-amine]",EC50,[1],≥ 3980 nM
same,EC50,[2],≤ 1260 nM
"CCCCc1nc(N)c2[nH]nc(CCCCCCN3CCCCCC3)c2n1 [Example 9, 3-(6-(Azepan-1-yl)hexyl)-5-butyl-1H-pyrazolo[4,3-d]pyrimidin-7-amine]",EC50,[1],≥ 3980 nM
same,EC50,[2],≤ 1260 nM
"CCCCc1nc(N)c2[nH]nc(CCCCCN3CCCCCC3)c2n1 [Example 10, 3-(5-(Azepan-1-yl)pentyl)-5-butyl-1H-pyrazolo[4,3-d]pyrimidin-7-amine]",EC50,[1],≥ 3980 nM
same,EC50,[2],≤ 1260 nM
"CCCCc1nc(N)c2[nH]nc(CCCCCCN3CC[C@H](F)C3)c2n1 [Example 11, (S)-5-Butyl-3-(6-(3-fluoropyrrolidin-1-yl)hexyl)-1H-pyrazolo[4,3-d]pyrimidin-7-amine]",EC50,[1],≥ 3980 nM
same,EC50,[2],≤ 1260 nM
"CCCCc1nc(N)c2[nH]nc(CCCCCN3CC[C@H](F)C3)c2n1 [Example 12, (S)-5-Butyl-3-(5-(3-fluoropyrrolidin-1-yl)pentyl)-1H-pyrazolo[4,3-d]pyrimidin-7-amine]",EC50,[1],≥ 3980 nM
same,EC50,[2],≤ 1260 nM
"CCCCc1nc(N)c2[nH]nc(CCCCCCN3CC[C@@H](F)C3)c2n1 [Example 13, (R)-5-Butyl-3-(6-(3-fluoropyrrolidin-1-yl)hexyl)-1H-pyrazolo[4,3-d]pyrimidin-7-amine formate]",EC50,[1],≥ 3980 nM
same,EC50,[2],≤ 1260 nM
"CCCCc1nc(N)c2[nH]nc(CCCCCN3CC[C@@H](F)C3)c2n1 [Example 14, (R)-5-Butyl-3-(5-(3-fluoropyrrolidin-1-yl)pentyl)-1H-pyrazolo[4,3-d]pyrimidin-7-amine]",EC50,[1],≥ 3980 nM
same,EC50,[2],≤ 1260 nM
"CCCCc1nc(N)c2[nH]nc(CCCCCCN3CCC(O)CC3)c2n1 [Example 15, 1-(6-(7-Amino-5-butyl-1H-pyrazolo[4,3-d]pyrimidin-3-yl)hexyl)piperidin-4-01]",EC50,[1],≥ 3980 nM
same,EC50,[2],≤ 1260 nM
"CCCCc1nc(N)c2[nH]nc(CCCCCN3CCC(O)CC3)c2n1 [Example 16, 1-(5-(7-Amino-5-butyl-1H-pyrazolo[4,3-d]pyrimidin-3-yl)pentyl)piperidin-4-01]",EC50,[1],≥ 3980 nM
same,EC50,[2],≤ 1260 nM
"CCCCc1nc(N)c2[nH]nc(CCCCCCN3CCC(F)CC3)c2n1 [Example 17, 5-Butyl-3-(6-(4-fluoropiperidin-1-yl)hexyl)-1H-pyrazolo[4,3-d]pyrimidin-7-amine formate]",EC50,[1],≥ 3980 nM
same,EC50,[2],≤ 1260 nM
"CCCCc1nc(N)c2[nH]nc(CCCCCN3CCC(F)CC3)c2n1 [Example 18, 5-Butyl-3-(5-(4-fluoropiperidin-1-yl)pentyl)-1H-pyrazolo[4,3-d]pyrimidin-7-amine]",EC50,[1],≥ 3980 nM
same,EC50,[2],≤ 1260 nM

# From patent US10022442B2, “Pyrazolopyrimidine compounds” (GlaxoSmithKline LLC, priority 2012, dated 2018)
